Experiments:
[1] = target: T1, human sphingosine-1-phosphate receptor 1 (S1P1) (Homo sapiens (Human), UniProt P21453); experiment: β-Arrestin2 recruitment assay (PathHunter), S1P1 CHO-K1 cells; type: cell-based; details: for Emax: CHO-K1, efficacy (SPAN) normalized to fingolimod, read-out: hS1P1 B-arrestin2 SPAN
Procedure, shortened: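 Enzyme-fragment complementation read-out: agonist-driven β-arrestin2 binding to ProLink-tagged human S1P1 in stable CHO-K1 cells restores β-galactosidase, measured 1 h at room temperature after a 60 min 37° C. compound incubation. Potency as pEC50, efficacy relative to fingolimod (SPAN).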
Target sequence in this assay (P21453 whole entry, looked up, the tested form may be a part): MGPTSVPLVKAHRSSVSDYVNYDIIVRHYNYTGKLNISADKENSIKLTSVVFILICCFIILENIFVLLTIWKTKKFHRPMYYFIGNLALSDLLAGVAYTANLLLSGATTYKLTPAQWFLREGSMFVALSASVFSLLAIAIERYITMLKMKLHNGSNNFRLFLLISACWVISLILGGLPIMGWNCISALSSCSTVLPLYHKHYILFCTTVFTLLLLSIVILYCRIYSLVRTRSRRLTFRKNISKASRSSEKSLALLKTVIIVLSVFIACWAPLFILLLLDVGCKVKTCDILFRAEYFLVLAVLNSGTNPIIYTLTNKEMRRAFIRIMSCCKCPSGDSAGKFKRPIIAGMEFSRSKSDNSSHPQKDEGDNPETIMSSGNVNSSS
Target sequence in this assay (P32121 whole entry partner, looked up, the tested form may be a part): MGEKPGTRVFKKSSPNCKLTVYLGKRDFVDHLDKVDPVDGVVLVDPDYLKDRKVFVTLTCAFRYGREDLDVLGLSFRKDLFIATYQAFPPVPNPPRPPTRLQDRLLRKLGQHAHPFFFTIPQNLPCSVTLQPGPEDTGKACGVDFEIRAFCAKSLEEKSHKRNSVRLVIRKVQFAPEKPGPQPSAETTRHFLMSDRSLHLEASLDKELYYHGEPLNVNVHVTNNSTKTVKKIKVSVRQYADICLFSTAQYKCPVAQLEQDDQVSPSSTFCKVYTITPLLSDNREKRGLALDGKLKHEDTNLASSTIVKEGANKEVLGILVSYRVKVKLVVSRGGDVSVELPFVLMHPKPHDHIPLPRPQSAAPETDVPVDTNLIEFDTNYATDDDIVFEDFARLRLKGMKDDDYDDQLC

[2] = target: T1, human sphingosine-1-phosphate receptor 1 (S1P1); experiment: Inhibition of cAMP production (HTRF cAMP HiRange), S1P1 CHO-K1 cells; type: cell-based; details: for Emax: CHO-K1, efficacy (SPAN) normalized to fingolimod, read-out: hS1P1 cAMP SPAN
Procedure, shortened: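 CHO-K1 cells stably co-expressing human S1P1 (C-terminal Prolink tag) and EA-β-arrestin2 were grown in AssayComplete Media 6 at 37° C. and 5% CO2, plated, and incubated overnight. Agonist-driven inhibition of intracellular cAMP was read by TR-FRET with the HTRF cAMP HiRange kit on a PheraStar reader. Potency is pEC50, and efficacy (SPAN) is normalized to fingolimod.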
Target sequence in this assay (P21453 whole entry, looked up, the tested form may be a part): as the sequence (P21453 whole entry, looked up, the tested form may be a part) above

[3] = β-arrestin2 recruitment, S1P1 CHO-K1 cells
[4] = inhibition of cAMP production, S1P1 CHO-K1 cells

Row | Emax [1] [%] | hS1P1 B-arrestin2 pEC50 [1, 3] | Emax [2] [%] | hS1P1 cAMP pEC50 [2, 4] | EC50 ([1]; β-arrestin2 recruitment, S1P1 CHO-K1 cells, read-out: hS1P1 B-arrestin2 pEC50 (converted)) [µM] | EC50 ([2]; inhibition of cAMP production, S1P1 CHO-K1 cells, read-out: hS1P1 cAMP pEC50 (converted)) [µM] | Compound
1 | < 75 | <5 | < 75 | <6.5 |  |  | CC(C)n1nnc2cc(-c3nc(-c4ccc5ccccc5n4)no3)ccc21 [Compound 168, 2-{5-[1-(propan-2-yl)-1H-1,2,3-benzotriazol-5-yl]-1,2,4-oxadiazol-3-yl}quinoline]
2 | < 75 | <5 | < 75 | <6.5 |  |  | CC(C)n1nnc2cc(-c3nc(-c4ccc(Cl)s4)no3)ccc21 [Compound 170, 5-[3-(5-chlorothiophen-2-yl)-1,2,4-oxadiazol-5-yl]-1-(propan-2-yl)-1H-1,2,3-benzotriazole]
3 |  | >5 |  | >6.5 |  |  | Cc1ccccc1-c1noc(-c2ccc3c(c2)nnn3C2CC2)n1 [Compound 171, 1-cyclopropyl-5-[3-(2-methylphenyl)-1,2,4-oxadiazol-5-yl]-1H-1,2,3-benzotriazole]
4 | < 75 | <5 | < 75 | <6.5 |  |  | Cc1ccccc1C(C)c1noc(-c2ccc3c(c2)nnn3C(C)C)n1 (centres unmarked) [Compound 172, 5-{3-[1-(2-methylphenyl)ethyl]-1,2,4-oxadiazol-5-yl}-1-(propan-2-yl)-1H-1,2,3-benzotriazole]
5 | > 75 | >5 | > 75 | >6.5 |  |  | COc1ccccc1-c1noc(-c2ccc3c(c2)nnn3C2CC2)n1 [Compound 173, 1-cyclopropyl-5-[3-(2-methoxyphenyl)-1,2,4-oxadiazol-5-yl]-1H-1,2,3-benzotriazole]
6 | > 75 | >5 | > 75 | >6.5 |  |  | Cc1ccccc1-c1noc(-c2ccc3c(c2)nnn3C2CCCC2)n1 [Compound 175, 1-cyclopentyl-5-[3-(2-methylphenyl)-1,2,4-oxadiazol-5-yl]-1H-1,2,3-benzotriazole]
7 |  | <5 |  | <6.5 |  |  | CC(C)n1nnc2cc(-c3nc(-c4ccccc4O)no3)ccc21 [Compound 180, 2-(5-(1-isopropyl-1H-benzo[d][1,2,3]triazol-5-yl)-1,2,4-oxadiazol-3-yl)phenol]
8 | > 75 | <5 | > 75 | <6.5 |  |  | CC(C)n1nnc2cc(C(=O)Nc3noc4ccccc34)ccc21 [Compound 181, N-(benzo[d]isoxazol-3-yl)-1-isopropyl-1H-benzo[d][1,2,3]triazole-5-carboxamide]
9 | < 75 | >5 | > 75 | >6.5 |  |  | Cc1ccccc1-c1noc(-c2ccc3c(c2)nnn3CC(F)F)n1 [Compound 182, 1-(2,2-difluoroethyl)-5-[3-(2-methylphenyl)-1,2,4-oxadiazol-5-yl]-1H-1,2,3-benzotriazole]
10 | > 75 | >5 | > 75 | >6.5 |  |  | CC(C)n1nnc2cc(-c3nc(-c4ccccc4Br)co3)ccc21 [Compound 183, 5-[4-(2-bromophenyl)-1,3-oxazol-2-yl]-1-(propan-2-yl)-1H-1,2,3-benzotriazole]
11 |  | <5 |  | <6.5 |  |  | COc1ccccc1-c1cnc(-c2ccc3c(c2)nnn3C(C)C)s1 [Compound 184, 2-(1-isopropyl-1H-benzo[d][1,2,3]triazol-5-yl)-5-(2-methoxyphenyl)thiazole]
12 | < 75 | <5 | < 75 | <6.5 |  |  | Brc1ccccc1-c1noc(-c2ccc3[nH]nnc3c2)n1 [Compound 190, 5-[3-(2-bromophenyl)-1,2,4-oxadiazol-5-yl]-1H-1,2,3-benzotriazole]
13 | < 75 | <5 | < 75 | <6.5 |  |  | Cc1ncccc1-c1nc(-c2ccc3c(c2)nnn3C(C)C)no1 [Compound 194, 3-(1-isopropyl-1H-benzo[d][1,2,3]triazol-5-yl)-5-(2-methylpyridin-3-yl)-1,2,4-oxadiazole]
14 | < 75 |  | < 75 |  | > 10 | > 0.316 | O=C(O)Cn1nnc2cc(-c3noc(-c4ccccc4Br)n3)ccc21 [Compound 195, 2-(5-(5-(2-bromophenyl)-1,2,4-oxadiazol-3-yl)-1H-benzo[d][1,2,3]triazol-1-yl)acetic acid]
15 |  | <5 |  | <6.5 |  |  | Cc1cc(-c2nc(-c3ccc4c(c3)nnn4C(C)C)no2)cnc1C [Compound 201, 5-(5,6-dimethylpyridin-3-yl)-3-(1-isopropyl-1H-benzo[d][1,2,3]triazol-5-yl)-1,2,4-oxadiazole]

Second part, the compound before the results:

Row | Compound | Emax [1] [%] | hS1P1 B-arrestin2 pEC50 [1, 3] | Emax [2] [%] | hS1P1 cAMP pEC50 [2, 4] | EC50 ([1]; β-arrestin2 recruitment, S1P1 CHO-K1 cells, read-out: hS1P1 B-arrestin2 pEC50 (converted)) [µM] | EC50 ([2]; inhibition of cAMP production, S1P1 CHO-K1 cells, read-out: hS1P1 cAMP pEC50 (converted)) [µM]
16 | c1cc(-c2noc(-c3ccc4c(c3)nnn4C3CCCC3)n2)ccn1 [Compound 174, 1-cyclopentyl-5-[3-(pyridin-4-yl)-1,2,4-oxadiazol-5-yl]-1H-1,2,3-benzotriazole] | > 75 | <5 | > 75 | >6.5 |  | 
17 | O=C1CC2(CCCC2)Oc2ccc(-c3nc(-c4ccncc4)no3)cc21 [Compound 176, 6-[3-(pyridin-4-yl)-1,2,4-oxadiazol-5-yl]-3,4-dihydrospiro[1-benzopyran-2,1′-cyclopentane]-4-one] | < 75 | <5 | > 75 | <6.5 |  | 
18 | CCC1(CC)CC(=O)c2cc(-c3nnc(-c4ccccc4OC)s3)ccc2O1 [Compound 178, 2,2-diethyl-6-(5-(2-methoxyphenyl)-1,3,4-thiadiazol-2-yl)chroman-4-one] | < 75 | >5 | > 75 | <6.5 |  | 
19 | COCC1(COC)CC(=O)c2cc(-c3nc(-c4cccnc4)no3)ccc2O1 [Compound 186, 2,2-bis(methoxymethyl)-6-[3-(pyridin-3-yl)-1,2,4-oxadiazol-5-yl]-3,4-dihydro-2H-1-benzopyran-4-one] | < 75 | <5 | < 75 | <6.5 |  | 
20 | CCC1(CC)CC(=O)c2cc(-c3nc(-c4ccccc4O)no3)ccc2O1 [Compound 187, 2,2-diethyl-6-[3-(2-hydroxyphenyl)-1,2,4-oxadiazol-5-yl]chroman-4-one] | > 75 | <5 | < 75 | <6.5 |  | 
21 | CCCCC1(CCCC)CC(=O)c2cc(-c3nc(-c4cccnc4)no3)ccc2O1 [Compound 188, 2,2-dibutyl-6-[3-(pyridin-3-yl)-1,2,4-oxadiazol-5-yl]-3,4-dihydro-2H-1-benzopyran-4-one] | < 75 | <5 | < 75 | <6.5 |  | 
22 | C=CCNc1ccc(-c2nc(-c3ccc4[nH]c(=O)oc4c3)no2)cc1C#N [Compound 189, 2-(allylamino)-5-(3-(2-oxo-2,3-dihydrobenzo[d]oxazol-6-yl)-1,2,4-oxadiazol-5-yl)benzonitrile] |  | >5 |  | >6.5 |  | 
23 | Cc1ccc(-c2noc(-c3ccc4c(c3)nnn4C3CCCC3)n2)s1 [Compound 192, 1-cyclopentyl-5-[3-(5-methylthiophen-2-yl)-1,2,4-oxadiazol-5-yl]-1H-1,2,3-benzotriazole] |  | <5 |  | <6.5 |  | 
24 | CCCn1nnc2cc(-c3nc(-c4ccc(C(F)(F)F)c(F)c4)no3)ccc21 [Compound 193, 5-{3-[3-fluoro-4-(trifluoromethyl)phenyl]-1,2,4-oxadiazol-5-yl}-1-propyl-1H-1,2,3-benzotriazole] |  | <5 |  | <6.5 |  | 
25 | COc1ccc(-c2nc(-c3ccc4c(c3)nnn4C3CCCC3)no2)cc1 [Compound 196, 3-(1-cyclopentyl-1H-benzo[d][1,2,3]triazol-5-yl)-5-(4-methoxyphenyl)-1,2,4-oxadiazole] |  | <5 |  | <6.5 |  | 
26 | COc1ccc(-c2noc(-c3ccc4c(c3)nnn4C3CCCC3)n2)cc1C(F)(F)F [Compound 197, 1-cyclopentyl-5-{3-[4-methoxy-3-(trifluoromethyl)phenyl]-1,2,4-oxadiazol-5-yl}-1H-1,2,3-benzotriazole] | < 75 | <5 | < 75 | <6.5 |  | 
27 | Clc1ncccc1-c1noc(-c2ccc3c(c2)nnn3C2CCCC2)n1 [Compound 198, 5-[3-(2-chloropyridin-3-yl)-1,2,4-oxadiazol-5-yl]-1-cyclopentyl-1H-1,2,3-benzotriazole] | < 75 | >5 | > 75 | >6.5 |  | 
28 | Clc1ncccc1-c1noc(-c2ccc3c(c2)nnn3CC2CC2)n1 [Compound 199, 5-[3-(2-chloropyridin-3-yl)-1,2,4-oxadiazol-5-yl]-1-(cyclopropylmethyl)-1H-1,2,3-benzotriazole] | < 75 | <5 | < 75 | <6.5 |  | 
29 | CC(C)n1nnc2cc(-c3noc(C45CC6CC(CC(C6)C4)C5)n3)ccc21 [Compound 200, 5-[5-(adamantan-1-yl)-1,2,4-oxadiazol-3-yl]-1-(propan-2-yl)-1H-1,2,3-benzotriazole] |  | <5 |  | <6.5 |  | 
